# Test results published in US8536120B2 (The Administrators of The Tulane Educational Fund, priority 2006, dated 2013).
# Values joined by “and” are separate entries in the source; they are usually repeats but may differ in a detail not shown here. Equal values may be shown once. Where no end group is shown, it is not given here. [ ]: non-standard residue; d: D form. d2Nal = N[C@H](Cc1ccc2ccccc2c1)C(=O)O
# Assays:
# [1] = biological target: T1, Ghrelin/GHRP/GHS Receptor (Rattus norvegicus, UniProt O08725); assay: In vitro cell culture method: GH release from cell culture of pituitary cells, peptide alone or plus stimulator; assay type: cell-based; parameters: from cell culture of pituitary cells; endogenous in cells; host or cells: dispersed primary rat anterior pituitary cells, 4 days in culture; conditions: for GH release, first line of entry (mark P + S): stimulator 1 ng/ml; for Unstimulated Basal GH release: Table 8
# T1 sequence (O08725 whole entry): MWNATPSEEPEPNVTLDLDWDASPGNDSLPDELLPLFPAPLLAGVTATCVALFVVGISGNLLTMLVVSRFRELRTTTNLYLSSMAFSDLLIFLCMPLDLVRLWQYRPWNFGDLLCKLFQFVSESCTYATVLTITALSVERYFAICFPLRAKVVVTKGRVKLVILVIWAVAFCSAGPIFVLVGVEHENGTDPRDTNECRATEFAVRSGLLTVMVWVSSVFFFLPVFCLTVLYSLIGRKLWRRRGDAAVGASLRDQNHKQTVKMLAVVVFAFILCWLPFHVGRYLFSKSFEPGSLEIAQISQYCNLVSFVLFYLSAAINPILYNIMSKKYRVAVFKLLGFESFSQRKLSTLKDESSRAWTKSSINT
# Experimental: (§1) The peptides were synthesized by the solid phase method and purified by HPLC. GH was determined by Radioimmunoassay (RIA).
# In vitro GH Release-Female rats of the CD-1 strain were housed in a constant temperature room at 24° C. with 14 h light and 10 h darkness. The rats were fed Purina Rat chow and water at libitum. All studies were started between 0800-1000 hours. Pituitaries of mature female Sprague Dawley rats were rapidly removed after decapitation, neurointermediate lobe discarded and then placed in a pH 7.4 buffer. The pituitaries were cut into ˜3-mm pieces and then transferred to a flask containing HEPS buffer with trypsin and incubated at 37° C. Cells were triturated several times during this period. After dispersion, the cells were collected by centrifugation, wash with DMEM and placed into culture well. Cell cultures were maintained for 4 days at 37° with 8% CO2 added to the incubator atmosphere. After 4 days in culture, cells were washed with lactated Ringer's solution adjusted to pH 7.2-7.4 and then vehicle, peptide alone or peptide plus stimulator was added to media. Incubation time was 60-120 minutes after which media was removed from each well for GH determination. The GH RIA reagents were distributed by the NIH. Control data was collected from cell cultures treated with only the corresponding vehicle in the absence of peptide or stimulator. Control stimulated data was collected from cell cultures treated with stimulator alone in the absence of any peptide.
# [2] = biological target: T1, Ghrelin/GHRP/GHS Receptor; assay: In vivo assay of GH release in rat, i.v. peptide alone or plus stimulator, serum GH by RIA
# Experimental: as §1
# For the in vivo assay of GH Release in rat, immature female Sprague Dawley rats were obtained from Charles River from Wilmington, Mass. After arrival they were housed at 25° C. with a 14:10 h light:dark cycle. Water and Purina rat chow were available at libitum. Pups were weaned at 21 days of age.
# Immature twenty six day old female Sprague Dawley rats, 3-6 rats per treatment dose, were pretreated with pentobarbital 20 minutes before iv injection of vehicle/peptide or peptide plus stimulator. Injection was made as a 0.1 ml solution. For the non-pentobarbital treated rat assay, peptides were administered iv into the tail vein of conscious rats. All animals were sacrificed by guillotine after iv peptide or vehicle. Trunk blood was collected at +10-15 minutes […], allowed to clot, centrifuged and serum stored until assayed for GH levels by RIA. The GH RIA reagents were distributed by the NIH. Control data was collected from rats treated with only the corresponding vehicle in the absence of peptide or stimulator. Control stimulated data was collected from rats treated with stimulator alone in the absence of any peptide.
compound,measurement,setting,value
"C=C(C)CON=C(c1ccccc1)c1ccccc1 [O-(2-methylallyl) benzophonone oxime, O-(2-methylallyl)benzophenone oxime]","GH release, second line of entry (no mark)","[1]; Table 10, 10 μg/ml",1281 ± 58 ng/mL
same,"GH release, first line of entry (mark P + S)","[1]; Table 10, 10 μg/ml",929 ± 28 ng/mL
same,"GH release, second line of entry (no mark)","[1]; Table 10, 30 μg/ml",699 ± 53 ng/mL
same,"GH release, first line of entry (mark P + S)","[1]; Table 10, 30 μg/ml",616 ± 23 ng/mL
CCOC(=O)c1cc2ccccc2cc1C(=O)N1CCC(c2ccccc2OC)CC1 [ethyl 3-(4-(2-methoxyphenyl)piperidine-1-carbonyl)-2-naphthoate],"GH release, second line of entry (no mark)","[1]; Table 10, 10 μg/ml",480 ± 9 ng/mL
same,"GH release, first line of entry (mark P + S)","[1]; Table 10, 10 μg/ml",373 ± 2 ng/mL
same,"GH release, second line of entry (no mark)","[1]; Table 10, 30 μg/ml",223 ± 22 ng/mL
same,"GH release, first line of entry (mark P + S)","[1]; Table 10, 30 μg/ml",176 ± 11 ng/mL
COC(=O)c1cc2ccccc2cc1C(=O)Nc1ccc(C)cc1 [methyl 3-(p-tolylcarbamoyl)-2-naphthoate],"GH release, second line of entry (no mark)","[1]; Table 11, 10 μg/ml",1149 ± 33 ng/mL
same,"GH release, first line of entry (mark P + S)","[1]; Table 11, 10 μg/ml",754 ± 32 ng/mL
same,"GH release, second line of entry (no mark)","[1]; Table 11, 30 μg/ml",886 ± 29 ng/mL
same,"GH release, first line of entry (mark P + S)","[1]; Table 11, 30 μg/ml",498 ± 26 ng/mL
"COc1ccccc1N1CCN(C(=O)c2cc3ccccc3cc2C(=O)N2CCN(c3ccccc3OC)CC2)CC1 [naphthalene-2,3-diylbis((4-(2-methoxyphenyl)piperazin-1-yl)methanone)]","GH release, second line of entry (no mark)","[1]; Table 10, 1 μg/ml",654 ± 18 ng/mL
same,"GH release, first line of entry (mark P + S)","[1]; Table 10, 1 μg/ml",338 ± 3 ng/mL
same,"GH release, second line of entry (no mark)","[1]; Table 10, 3 μg/ml",442 ± 4 ng/mL
same,"GH release, first line of entry (mark P + S)","[1]; Table 10, 3 μg/ml",204 ± 10 ng/mL
same,"GH release, second line of entry (no mark)","[1]; Table 10, 10 μg/ml",537 ± 28 ng/mL and 648 ± 16 ng/mL
same,"GH release, first line of entry (mark P + S)","[1]; Table 10, 10 μg/ml",262 ± 4 ng/mL and 136 ± 11 ng/mL
same,"GH release, second line of entry (no mark)","[1]; Table 10, 30 μg/ml",309 ± 46 ng/mL
same,"GH release, first line of entry (mark P + S)","[1]; Table 10, 30 μg/ml",118 ± 8 ng/mL
"CC(C)(N)C(=O)N[C@H](COCc1ccccc1)C(=O)N1CCN(c2ccccc2)CC1 [αAibDSer(BZL)-N′-phenyl-N-piperazinamide, (R)-2-amino-N-(3-(benzyloxy)-1-oxo-1-(4-phenylpiperazin-1-yl)propan-2-yl)-2-methylpropanamide]","GH release, second line of entry (no mark)","[1]; Table 10, 10 μg/ml",878 ± 30 ng/mL
same,"GH release, first line of entry (mark P + S)","[1]; Table 10, 10 μg/ml",777 ± 34 ng/mL
same,"GH release, second line of entry (no mark)","[1]; Table 10, 30 μg/ml",510 ± 15 ng/mL
same,"GH release, first line of entry (mark P + S)","[1]; Table 10, 30 μg/ml",499 ± 18 ng/mL
DAla-DcyclohexylAla-Ala-Ala-Phe-DPhe-Nle-NH2,Unstimulated Basal GH release,[1]; peptide 1 μg/ml,286 ± 75 ng/mL
same,Unstimulated Basal GH release,[1]; peptide 3 μg/ml,177 ± 44 ng/mL
same,Unstimulated Basal GH release,[1]; peptide 10 μg/ml,271 ± 38 ng/mL
same,Unstimulated Basal GH release,[1]; peptide 30 μg/ml,376 ± 28 ng/mL
[dA][d2Nal]AW[dF]K-NH2 [reference compound],Stimulated Control GH,"[2]; Table 2, stimulator DAla-DβNal-Ala-Trp-DPhe-Lys-NH2 alone 0.3 μg, rat",2253 ± 252 ng/mL and 1412 ± 400 ng/mL
same,Stimulated Control GH,"[2]; Table 2, stimulator DAla-DβNal-Ala-Trp-DPhe-Lys-NH2 alone 1 μg, rat",3214 ± 276 ng/mL and 3105 ± 429 ng/mL and 2406 ± 288 ng/mL and 2825 ± 134 ng/mL and 3104 ± 429 ng/mL
same,Stimulated Control GH,"[2]; Table 4, Non-Pentobarbital Rats, stimulator DAla-DβNal-Ala-Trp-DPhe-Lys-NH2 alone 10 μg",72 ± 9 ng/mL
same,Stimulated Control GH,"[2]; Table 4, Pentobarbital Rats, stimulator DAla-DβNal-Ala-Trp-DPhe-Lys-NH2 alone 1 μg",4950 ± 98 ng/mL
same,Stimulated Control GH release,"[1]; Table 6, stimulator DAla-DβNal-Ala-Trp-DPhe-Lys-NH2 alone 10 ng/ml",2420 ± 0 ng/mL and 2811 ± 229 ng/mL and 2385 ± 8 ng/mL
same,Stimulated Control GH release,"[1]; Table 9, stimulator DAla-DβNal-Ala-Trp-DPhe-Lys-NH2 alone 1 ng/ml",1232 ± 34 ng/mL
same,Stimulated Control GH release,"[1]; Table 10, stimulator DAla-DβNal-Ala-Trp-DPhe-Lys-NH2 alone 1 ng/ml",905 ± 6 ng/mL and 1153 ± 36 ng/mL and 1216 ± 26 ng/mL and 1461 ± 58 ng/mL and 1016 ± 18 ng/mL and 859 ± 4 ng/mL and 1060 ± 24 ng/mL
same,Stimulated Control GH release,"[1]; Table 11, stimulator DAla-DβNal-Ala-Trp-DPhe-Lys-NH2 alone 1 ng/ml",905 ± 6 ng/mL and 947 ± 11 ng/mL and 947 ± 33 ng/mL and 1016 ± 18 ng/mL
[dA][d2Nal][dK][dW]FK-NH2,Stimulated GH release (P + S),"[2]; Table 4, Pentobarbital Rats, peptide 30 μg i.v. + stimulator DAla-DβNal-Ala-Trp-DPhe-Lys-NH2 1 μg",2884 ± 828 ng/mL
